Reference: ChEMBL document CHEMBL3351663, “Discovery of acylurea isosteres of 2-acylaminothiadiazole in the azaxanthene series of glucocorticoid receptor agonists” (Bioorg Med Chem Lett, 2014)

Columns and labels:
Glucocorticoid receptor [1] = biological target: T1, Glucocorticoid receptor (Homo sapiens, UniProt P04150); assay: Agonist activity at glucocorticoid receptor in human A549 cells assessed as AP-1 transrepression by luciferase reporter gene assay; assay type: cell-based
T1 sequence (P04150 whole entry): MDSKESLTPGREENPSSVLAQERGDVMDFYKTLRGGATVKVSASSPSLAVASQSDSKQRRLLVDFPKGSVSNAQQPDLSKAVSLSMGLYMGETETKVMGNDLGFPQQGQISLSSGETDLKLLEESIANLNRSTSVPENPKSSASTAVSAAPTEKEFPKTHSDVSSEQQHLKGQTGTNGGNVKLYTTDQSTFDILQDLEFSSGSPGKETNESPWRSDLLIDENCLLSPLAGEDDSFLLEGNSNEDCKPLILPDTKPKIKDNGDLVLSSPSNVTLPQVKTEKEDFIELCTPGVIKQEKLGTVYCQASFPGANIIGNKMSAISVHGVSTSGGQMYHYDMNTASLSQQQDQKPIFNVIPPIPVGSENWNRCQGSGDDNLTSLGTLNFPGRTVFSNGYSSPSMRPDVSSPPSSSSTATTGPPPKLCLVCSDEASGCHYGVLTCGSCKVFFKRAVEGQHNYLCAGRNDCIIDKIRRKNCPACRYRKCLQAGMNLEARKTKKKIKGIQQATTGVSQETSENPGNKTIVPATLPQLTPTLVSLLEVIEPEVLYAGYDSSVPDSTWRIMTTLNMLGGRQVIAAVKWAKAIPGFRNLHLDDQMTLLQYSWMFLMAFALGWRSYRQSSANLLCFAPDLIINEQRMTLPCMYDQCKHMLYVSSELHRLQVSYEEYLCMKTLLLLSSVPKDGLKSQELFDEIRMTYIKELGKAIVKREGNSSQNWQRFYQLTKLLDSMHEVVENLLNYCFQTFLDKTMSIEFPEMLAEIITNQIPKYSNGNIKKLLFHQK

Glucocorticoid receptor [2] = biological target: T1, Glucocorticoid receptor; parameters: species or system Blood
Androgen receptor = biological target: T2, Androgen receptor (Homo sapiens, UniProt P10275); assay: Binding affinity to androgen receptor (unknown origin)
T2 sequence (P10275 whole entry): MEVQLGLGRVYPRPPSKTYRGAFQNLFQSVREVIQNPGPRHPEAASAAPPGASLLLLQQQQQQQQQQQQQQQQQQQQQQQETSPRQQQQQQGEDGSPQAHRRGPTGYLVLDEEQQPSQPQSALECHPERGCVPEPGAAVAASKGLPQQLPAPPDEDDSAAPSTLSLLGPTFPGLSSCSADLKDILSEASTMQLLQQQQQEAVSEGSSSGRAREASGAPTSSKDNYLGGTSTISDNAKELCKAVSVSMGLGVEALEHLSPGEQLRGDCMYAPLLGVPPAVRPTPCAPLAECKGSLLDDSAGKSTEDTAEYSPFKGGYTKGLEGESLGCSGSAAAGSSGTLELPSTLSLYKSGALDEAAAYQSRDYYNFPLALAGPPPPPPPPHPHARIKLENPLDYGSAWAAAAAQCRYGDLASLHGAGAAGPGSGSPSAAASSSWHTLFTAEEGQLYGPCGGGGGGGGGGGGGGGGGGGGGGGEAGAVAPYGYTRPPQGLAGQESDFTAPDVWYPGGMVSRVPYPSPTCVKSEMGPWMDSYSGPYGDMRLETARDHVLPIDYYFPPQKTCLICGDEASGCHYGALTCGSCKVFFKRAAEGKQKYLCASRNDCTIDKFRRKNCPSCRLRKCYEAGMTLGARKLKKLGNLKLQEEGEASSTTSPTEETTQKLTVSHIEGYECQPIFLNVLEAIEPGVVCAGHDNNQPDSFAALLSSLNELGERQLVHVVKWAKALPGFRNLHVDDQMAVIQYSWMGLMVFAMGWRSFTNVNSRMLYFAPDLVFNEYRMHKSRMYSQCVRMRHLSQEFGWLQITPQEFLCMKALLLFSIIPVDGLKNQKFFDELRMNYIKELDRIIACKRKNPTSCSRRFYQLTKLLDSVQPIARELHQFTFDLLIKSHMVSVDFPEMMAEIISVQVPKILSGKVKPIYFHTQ

[3] = biological target: T3, Mineralocorticoid receptor (Homo sapiens, UniProt P08235); assay: Agonist activity at mineralocorticoid receptor in human A549 cells; assay type: cell-based
T3 sequence (P08235 whole entry): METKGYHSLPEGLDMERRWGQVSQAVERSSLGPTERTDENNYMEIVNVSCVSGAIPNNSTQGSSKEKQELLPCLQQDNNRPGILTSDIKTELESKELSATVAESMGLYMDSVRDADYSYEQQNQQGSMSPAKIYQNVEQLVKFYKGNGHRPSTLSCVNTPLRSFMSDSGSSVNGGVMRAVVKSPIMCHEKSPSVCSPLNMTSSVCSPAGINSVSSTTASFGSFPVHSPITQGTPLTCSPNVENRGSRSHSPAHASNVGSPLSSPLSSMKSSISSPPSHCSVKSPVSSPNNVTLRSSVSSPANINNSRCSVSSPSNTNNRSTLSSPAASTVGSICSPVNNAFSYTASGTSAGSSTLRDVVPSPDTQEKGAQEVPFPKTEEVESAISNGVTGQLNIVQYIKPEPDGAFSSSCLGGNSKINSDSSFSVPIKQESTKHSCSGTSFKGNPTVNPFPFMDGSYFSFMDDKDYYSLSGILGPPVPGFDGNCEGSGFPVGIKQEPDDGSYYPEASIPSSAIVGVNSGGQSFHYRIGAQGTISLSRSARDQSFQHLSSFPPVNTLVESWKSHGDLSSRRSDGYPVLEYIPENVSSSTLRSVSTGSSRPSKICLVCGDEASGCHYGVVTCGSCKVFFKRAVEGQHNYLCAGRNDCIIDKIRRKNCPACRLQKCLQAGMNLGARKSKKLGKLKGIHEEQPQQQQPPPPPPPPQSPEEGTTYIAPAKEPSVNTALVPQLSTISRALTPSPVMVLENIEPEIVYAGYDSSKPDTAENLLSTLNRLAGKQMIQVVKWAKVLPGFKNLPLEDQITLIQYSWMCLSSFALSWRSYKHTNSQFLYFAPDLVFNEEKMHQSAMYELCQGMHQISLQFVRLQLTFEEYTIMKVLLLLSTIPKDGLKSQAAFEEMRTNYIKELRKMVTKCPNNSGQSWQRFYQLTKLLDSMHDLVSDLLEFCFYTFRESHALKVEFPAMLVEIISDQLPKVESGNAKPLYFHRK

EC50 (Glucocorticoid receptor [1]) [nM]	EC50 (Glucocorticoid receptor [2]) [nM]	Ki (Androgen receptor) [µM]	EC50 [3] [µM]	SMILES
2.1	20.3	> 50	> 5	CC(C)(C(=O)NC(N)=O)[C@@H]1c2ccc(-c3ccc(C(=O)N4CCOCC4)cc3)nc2Oc2c(F)cccc21
2.1	21.5	> 50	> 5	CC(C)(C(=O)Nc1nncs1)[C@@H]1c2ccc(-c3ccc(C(=O)N4CCOCC4)cc3)nc2Oc2c(F)cccc21
